Data as given in patent publication US20020119198A1, “Self-emulsifying drug delivery systems for extremely water-insoluble, lipophilic drugs” (priority 2000, published 2002).

Assays:
[1] = Solubility of the active agent in the formulation vehicle; assay type: physicochemical
[2] = Solubility of the active agent in a typical aqueous formulation; assay type: physicochemical; conditions: room temperature

## Cc1cc(C)c(C=C2C(=O)Nc3ccccc32)[nH]1 [3-[(2,4-dimethylpyrrol-5-yl)methylene]-2-indolinone]
[1]; vehicle free of polyvinylpyrrolidone
  solubility, drug dissolved in vehicle: about 15 mg/g
[1]; vehicle of the present invention (with polyvinylpyrrolidone)
  solubility, drug dissolved in vehicle: over 30 mg/g
[2]
  solubility in a typical aqueous formulation: approximately 10 nanograms per milliliter
